Test results: ChEMBL document CHEMBL4382202, “1-(2-Hydroxybenzoyl)-thiosemicarbazides are promising antimicrobial agents targeting d-alanine-d-alanine ligase in bacterio” (Eur J Med Chem, 2018)
Active and inactive are the calls of the source. The rule behind the calls is not given here.

Assays:
[1] = target: T1, D-alanine--D-alanine ligase (Enterococcus faecalis (strain ATCC 700802 / V583)) (UniProt Q47758); experiment: Inhibition of Enterococcus faecalis JH2-2 C-terminal 6His-tagged DdlB expressed in Escherichia coli LMG194 at 10 uM preincubated for 30 mins followed by substrate addition and measured after 20 mins by Biomol Green reagent assay relative to control
T1 sequence (whole entry): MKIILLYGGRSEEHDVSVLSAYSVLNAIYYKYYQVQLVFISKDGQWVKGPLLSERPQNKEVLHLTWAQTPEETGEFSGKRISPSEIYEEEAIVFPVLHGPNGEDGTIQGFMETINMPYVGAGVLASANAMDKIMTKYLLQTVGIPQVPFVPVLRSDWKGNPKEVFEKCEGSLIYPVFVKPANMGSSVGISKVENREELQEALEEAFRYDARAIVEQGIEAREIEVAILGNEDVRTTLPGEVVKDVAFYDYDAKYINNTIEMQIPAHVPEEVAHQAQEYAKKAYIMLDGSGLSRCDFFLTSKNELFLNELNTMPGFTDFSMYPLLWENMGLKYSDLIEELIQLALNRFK

[2] = target: Acetylcholinesterase (Homo sapiens) (UniProt P22303); experiment: Inhibition of human recombinant acetylcholinesterase at 10 uM using acetylthiocholine as substrate after 30 mins by spectrophotometric analysis relative to control
Chain of Acetylcholinesterase (Homo sapiens) (P22303 whole entry): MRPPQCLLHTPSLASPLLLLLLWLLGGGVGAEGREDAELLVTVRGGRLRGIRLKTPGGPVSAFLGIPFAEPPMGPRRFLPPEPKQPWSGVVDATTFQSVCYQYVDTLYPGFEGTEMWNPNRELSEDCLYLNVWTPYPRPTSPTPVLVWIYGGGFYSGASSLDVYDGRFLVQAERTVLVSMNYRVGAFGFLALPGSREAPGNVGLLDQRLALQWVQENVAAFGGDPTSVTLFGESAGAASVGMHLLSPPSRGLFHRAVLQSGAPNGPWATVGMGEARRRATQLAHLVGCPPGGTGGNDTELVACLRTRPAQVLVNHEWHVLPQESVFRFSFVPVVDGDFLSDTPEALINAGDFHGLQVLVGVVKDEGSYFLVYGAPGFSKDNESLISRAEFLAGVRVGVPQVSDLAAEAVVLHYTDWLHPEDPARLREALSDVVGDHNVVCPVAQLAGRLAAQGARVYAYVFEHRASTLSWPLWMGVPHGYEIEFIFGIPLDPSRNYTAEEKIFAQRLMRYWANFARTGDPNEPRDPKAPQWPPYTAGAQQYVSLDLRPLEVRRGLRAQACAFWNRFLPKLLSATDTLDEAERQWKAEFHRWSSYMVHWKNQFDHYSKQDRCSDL

[3] = target: Prostaglandin G/H synthase 1 (Homo sapiens) (UniProt P23219); experiment: Inhibition of human recombinant COX1 at 10 uM using arachidonic acid as substrate after 3 mins by fluorimetric analysis relative to control
Chain of Prostaglandin G/H synthase 1 (Homo sapiens) (P23219 whole entry): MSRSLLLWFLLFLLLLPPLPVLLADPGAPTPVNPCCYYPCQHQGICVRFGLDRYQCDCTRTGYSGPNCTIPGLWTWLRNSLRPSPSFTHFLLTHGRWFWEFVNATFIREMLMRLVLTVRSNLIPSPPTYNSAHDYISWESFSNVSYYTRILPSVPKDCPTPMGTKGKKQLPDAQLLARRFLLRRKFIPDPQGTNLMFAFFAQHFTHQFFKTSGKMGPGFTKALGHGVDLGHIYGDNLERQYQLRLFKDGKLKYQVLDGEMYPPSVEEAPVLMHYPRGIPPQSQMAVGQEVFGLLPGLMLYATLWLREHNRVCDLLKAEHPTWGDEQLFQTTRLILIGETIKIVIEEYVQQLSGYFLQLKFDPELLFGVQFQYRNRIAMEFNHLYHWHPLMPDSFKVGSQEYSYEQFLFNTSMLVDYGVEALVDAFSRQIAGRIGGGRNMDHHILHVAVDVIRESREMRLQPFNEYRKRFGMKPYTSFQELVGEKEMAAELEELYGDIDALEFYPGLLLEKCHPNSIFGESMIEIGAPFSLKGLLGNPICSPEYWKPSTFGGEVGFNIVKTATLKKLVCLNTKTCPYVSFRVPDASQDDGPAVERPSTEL

[4] = target: DNA gyrase (Escherichia coli) (UniProt P0AES6+P0AES4); experiment: Inhibition of Escherichia coli DNA gyrase at 10 uM using supercoiled pBR322 DNA as substrate after 1 hr by ethidium bromide staining-based agarose gel electrophoresis relative to control; assay type: protein-complex assay
[5] = target: Peroxisome proliferator-activated receptor alpha (Homo sapiens) (UniProt Q07869); experiment: Displacement of [3H]WY 14643 from human recombinant PPARalpha receptor at 10 uM at 10 uM after 120 mins by scintillation counting analysis relative to control
Chain of Peroxisome proliferator-activated receptor alpha (Homo sapiens) (Q07869 whole entry): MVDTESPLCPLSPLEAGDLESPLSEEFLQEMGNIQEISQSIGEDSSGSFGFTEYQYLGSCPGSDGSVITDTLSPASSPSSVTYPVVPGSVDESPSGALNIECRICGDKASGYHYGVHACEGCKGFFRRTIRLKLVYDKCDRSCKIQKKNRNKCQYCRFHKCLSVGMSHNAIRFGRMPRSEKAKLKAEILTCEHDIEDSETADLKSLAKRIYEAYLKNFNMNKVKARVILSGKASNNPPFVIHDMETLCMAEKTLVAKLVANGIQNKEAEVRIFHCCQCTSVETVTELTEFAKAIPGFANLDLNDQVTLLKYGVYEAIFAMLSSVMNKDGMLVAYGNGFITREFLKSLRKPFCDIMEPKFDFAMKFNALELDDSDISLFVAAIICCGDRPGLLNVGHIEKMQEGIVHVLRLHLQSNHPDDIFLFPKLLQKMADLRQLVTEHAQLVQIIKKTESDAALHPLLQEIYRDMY

[6] = target: Topoisomerase IV (Staphylococcus aureus) (UniProt P0C1U9+P0C1S7); experiment: Inhibition of Staphylococcus aureus DNA topoisomerase 4 at 10 uM using interlinked kDNA as substrate after 1 hr by ethidium bromide staining-based agarose gel electrophoresis relative to control; assay type: protein-complex assay
[7] = target: T1, D-alanine--D-alanine ligase (Enterococcus faecalis (strain ATCC 700802 / V583)); experiment: Reversible inhibition of Enterococcus faecalis JH2-2 C-terminal 6His-tagged DdlB expressed in Escherichia coli LMG194 at 3 uM preincubated for 30 mins followed by 10 times dilution followed by 20 mins incubation with substrate by Biomol Green reagent assay
Klebsiella pneumoniae = experiment: Antibacterial activity against Klebsiella pneumoniae ATCC 700603 after 18 to 24 hrs by microdilution assay; assay type: functional, organism-based
[8] = target: T1, D-alanine--D-alanine ligase (Enterococcus faecalis (strain ATCC 700802 / V583)); experiment: Inhibition of Enterococcus faecalis JH2-2 C-terminal 6His-tagged DdlB expressed in Escherichia coli LMG194 assessed as Vmax/Km of D-Ala at 10 uM by Biomol Green reagent assay (reference value: 11.02 /min)

SMILES: O=C(NNC(=S)Nc1ccc(Cl)c(Cl)c1)c1ccccc1O
- inhibition [1]: > 30%
- inhibition [2]: < 30%
- inhibition [3]: < 30%
- inhibition [4]: < 30%
- inhibition [5]: < 30%
- inhibition [6]: < 30%
- inhibition [7]: Active
- MIC (Klebsiella pneumoniae): inactive
- Vmax/Km [8]: 4.69 min⁻¹
